Data: PubChem BioAssay (NCI)
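Cultured in 96-well plates, cells were exposed to test compound for 48 hours across five concentrations. TGI marks complete inhibition of growth.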 *1 amine or outer side, *2 acyl side, *3 side chain or, on linkers, in order; H or OH if unused. Where a SMILES comes first, the peptide text is derived from it. Bridges are numbered along the chain shown (N, C = ends). [ ]: non-standard residue; d: D form. The star is where a group is joined. X34 = O=C(C(CCCCNO[*:3])N[*:1])[*:2]; Fmoc = O=C(OCC1c2ccccc2-c2ccccc21)*

Legend:
Experiment in all cases: NCI-60 cell line screen, 48 h
NCI-H23 lung = tested on: NCI-H23 lung
PC-3 prostate = tested on: PC-3 prostate
EKVX NSCLC = tested on: EKVX NSCLC
OVCAR-4 ovarian = tested on: OVCAR-4 ovarian
SF-539 CNS = tested on: SF-539 CNS
NCI-H226 lung = tested on: NCI-H226 lung
SNB-19 CNS = tested on: SNB-19 CNS
SW-620 colon = tested on: SW-620 colon
RPMI-8226 leukemia = tested on: RPMI-8226 leukemia
HL-60(TB) leukemia = tested on: HL-60(TB) leukemia
SK-MEL-28 melanoma = tested on: SK-MEL-28 melanoma
786-0 renal = tested on: 786-0 renal
LOX IMVI melanoma = tested on: LOX IMVI melanoma
KM12 colon = tested on: KM12 colon
MOLT-4 leukemia = tested on: MOLT-4 leukemia
NCI/ADR-RES ovarian = tested on: NCI/ADR-RES ovarian
HS 578T breast = tested on: HS 578T breast
SK-OV-3 ovarian = tested on: SK-OV-3 ovarian
MDA-N = tested on: MDA-N

| Structure (SMILES) | TGI (NCI-H23 lung) | TGI (PC-3 prostate) | TGI (EKVX NSCLC) | TGI (OVCAR-4 ovarian) | TGI (SF-539 CNS) | TGI (NCI-H226 lung) | TGI (SNB-19 CNS) | TGI (SW-620 colon) | TGI (RPMI-8226 leukemia) | TGI (HL-60(TB) leukemia) | TGI (SK-MEL-28 melanoma) | TGI (786-0 renal) | TGI (LOX IMVI melanoma) | TGI (KM12 colon) | TGI (MOLT-4 leukemia) | TGI (NCI/ADR-RES ovarian) | TGI (HS 578T breast) | TGI (SK-OV-3 ovarian) | TGI (MDA-N) |
| --- | --- | --- | --- | --- | --- | --- | --- | --- | --- | --- | --- | --- | --- | --- | --- | --- | --- | --- | --- |
| NC(=O)CNC(=O)C1CCCN1C(=O)C1CCCCNOC(=O)CCC(NC(=O)OCC2c3ccccc3-c3ccccc32)C(=O)NC(Cc2c[nH]c3ccccc23)C(=O)N1 (stereo not drawn) (Fmoc-EW[X34]PG-NH2; ester 1-3; configuration not given here) | > 100 µM | > 100 µM | > 100 µM | > 100 µM | > 100 µM | > 100 µM | > 100 µM | > 100 µM | > 100 µM | > 100 µM | > 100 µM | > 100 µM | > 100 µM | > 100 µM | > 100 µM | > 100 µM | > 100 µM | > 100 µM |  |
| COC1(OC)C=CC2C1C1C=CC2C1(OC)OC (stereo not drawn) | > 100 µM | > 100 µM | > 100 µM | > 100 µM | > 100 µM | > 100 µM | > 100 µM | > 100 µM | > 100 µM |  | > 100 µM | > 100 µM | > 100 µM | > 100 µM | > 100 µM | > 100 µM | > 100 µM | > 100 µM |  |
| CCN(CC)Cc1ccc(C(=S)Nc2ccc(C)cc2)s1 | 26.5 µM | 31.3 µM | 35.2 µM | 71 µM | 37.7 µM |  | 34.7 µM | 45.3 µM | 46.8 µM | 27 µM | 30.5 µM | 29.1 µM | 30.2 µM | 31 µM | 41.6 µM | 51.9 µM | 16.7 µM | 31.1 µM |  |
| O/N=C1/CC2(N3CCOCC3)C3CC/C(=N\O)C2CC1(Cc1ccccc1)C3 (stereo not drawn) | > 100 µM | > 100 µM | > 100 µM | > 100 µM | > 100 µM | > 100 µM | > 100 µM | > 100 µM |  | > 100 µM | > 100 µM | > 100 µM | > 100 µM | > 100 µM | > 100 µM | > 100 µM |  | > 100 µM | > 100 µM |
| CC1=NN(c2nc(N)nc(C/C(N)=N/O)n2)C(C)(C)C1 | > 100 µM |  | > 100 µM | > 100 µM | > 100 µM | > 100 µM | > 100 µM | > 100 µM | > 100 µM | > 100 µM | > 100 µM | > 100 µM | > 100 µM | > 100 µM | > 100 µM | > 100 µM | > 100 µM | > 100 µM |  |
| C=C(C(=C)N1N=NC2C3CCC(C3)C21)N1N=NC2C3CCC(C3)C21 (stereo not drawn) | > 100 µM |  |  | > 100 µM | > 100 µM |  | > 100 µM | > 100 µM |  | 54.6 µM | > 100 µM | > 100 µM | > 100 µM | > 100 µM | > 100 µM |  |  |  |  |
| C=CCN1/C(=C2\SC(=S)N(c3ccc(C)cc3)C2=O)Sc2c1nc[nH]c2=O | > 100 µM |  | > 100 µM | > 100 µM | > 100 µM | > 100 µM | > 100 µM | > 100 µM | > 100 µM | > 100 µM | > 100 µM | > 100 µM | > 100 µM |  | > 100 µM |  |  | > 100 µM |  |
| Nc1ccc(C23CC4CC(C2)CC(c2ccc(N)cc2)(C4)C3)cc1 | > 100 µM |  | 81.6 µM | > 100 µM | 31.1 µM | 44.9 µM | > 100 µM | 28 µM | 27.4 µM | 51 µM | > 100 µM | > 100 µM | > 100 µM | > 100 µM | 28.4 µM | > 100 µM |  |  | > 100 µM |
| COC(=O)C(Br)C1CCc2ccccc21 (stereo not drawn) | > 100 µM |  |  | > 100 µM |  | > 100 µM | > 100 µM | > 100 µM | > 100 µM | > 100 µM | > 100 µM | > 100 µM | > 100 µM |  | > 100 µM |  |  | > 100 µM |  |
| CN(C(=O)C1=CCC2(CC1)OCCO2)c1ccccc1I | > 100 µM | > 100 µM | > 100 µM | > 100 µM |  | > 100 µM | > 100 µM | > 100 µM | > 100 µM | > 100 µM | > 100 µM | > 100 µM | > 100 µM | > 100 µM | > 100 µM | > 100 µM |  | > 100 µM | > 100 µM |
| Cc1ccc(C(=O)/C=C/c2cccc([N+](=O)[O-])c2)cc1 | > 100 µM |  | > 100 µM | > 100 µM | > 100 µM | > 100 µM | > 100 µM | 43.7 µM | > 78.8 µM | > 85.8 µM | > 100 µM | > 62.9 µM | > 100 µM | > 62.1 µM | 7.39 µM |  |  | > 100 µM |  |
| CCOC(=O)c1cnc2sc3ccc4ccccc4c3n2c1=O | > 100 µM |  | > 100 µM | > 100 µM | > 100 µM | > 100 µM | > 100 µM | > 100 µM | > 100 µM | 52 µM | > 100 µM | > 100 µM | > 100 µM | > 100 µM | > 100 µM |  |  | > 100 µM |  |
| COc1ccc(/C=C2\CCC(CCN(C)C)(C3=CCCC3)C2=O)cc1Br (stereo not drawn) | 29 µM |  | 8.62 µM | 14.5 µM | 25.7 µM | 31.4 µM | 22.1 µM | 20.3 µM | 5.5 µM | 4.63 µM | 7.7 µM | 14.3 µM | 15.4 µM | 14.9 µM | 6.01 µM |  |  |  |  |
| CC(C)Oc1cccc(N2C(=NCCc3c[nH]c4ccccc34)Nc3ccncc3S2(=O)=O)c1 | > 100 µM | > 100 µM | > 100 µM | > 100 µM | > 100 µM | > 100 µM | > 100 µM | > 100 µM | > 100 µM | 65.4 µM | > 100 µM | 5.35 µM | > 100 µM | > 100 µM | > 100 µM | > 100 µM | > 100 µM | > 100 µM |  |
